Measurements as given in patent publication US8841413B2, “Antidiabetic compounds” (Cadila Healthcare Limited, priority 2006, dated 2014).

Columns and labels:
C57BL/6J mice = assay: Acute single dose 120-min time-course experiment, in vivo glucose reduction in C57BL/6J mice; design: unit not given here; conditions: male C57BL/6J mice, Mean ± SEM
Description: All the animal experiments were carried out according to the internationally valid guidelines following approval by the ‘Zydus Research Center animal ethical committee’. […] Two days prior to the study, the animals were randomised and divided into 5 groups (n=6), based upon their fed glucose levels. On the day of experiment, food was withdrawn from all the cages, water was given ad-libitum and were kept for overnight fasting. Vehicle (normal saline)/test/standard compounds were administered intraperitoneally (i.p.) or orally, on a body weight basis. […] Blood samples were centrifuged and the separated serum was immediately subjected for the glucose estimation. Serum for insulin estimation was stored at −70° C. until used for the insulin estimation. The glucose estimation was carried out with DPEC-GOD/POD method (Ranbaxy Fine Chemicals Limited, Diagnostic division, India), using Spectramax-190, in 96-microwell plate reader (Molecular devices Corporation, Sunnyvale, Calif.). […] The AUC and BCAUC obtained from graphs were analyzed for one way ANOVA, followed by Dunnett's post test, using Graph Pad prism software. Furthermore, the insulin estimation was carried out using rat/mouse insulin ELISA kit (Linco research, Mo. USA).

Human GLP-1 receptor = target: T1, Human GLP-1 receptor (Homo sapiens, UniProt P43220); type: cell-based; conditions: in vitro, FIG. 4
T1 construct: The full-length cDNA was cloned in pcDNA3.1(+); expressed in transfected cells
Description: The novel peptidomimetics were screened for Human GLP-1 receptor (HGLP-1 R) agonist activity (in vitro), using the cAMP cell-based assay, in stably transfected CHO/human GLP1R cells. […] CHO cells were grown in Ham's F12 medium containing L-Glutamine (2 mM), HEPES (25 mM), NaHCO3 (1.1 g/L) and supplemented with NewBorn Calf Serum (NBCS; 10%), Penicillin (50 U/ml (v/v)) and Streptomycin (50 ug/ml (v/v)). Cells were split every 3 days 1:8.
The cDNA encoding the human GLP-1 receptor was isolated by RT-PCR according to standard protocol. The full-length cDNA was cloned in pcDNA3.1(+). […] Clones expressing the receptor were generated by G418 (800 μg/ml active, Sigma) selection. The stable clones were thereafter maintained at 500 ug/ml (G418). The selected clone was used between passages 9-25 for cAMP assays.
The trypsin was inactivated using Ham's F12 medium containing 10% NBCS and the cells were suspended in 2 ml of complete medium. […] The medium was aspirated off from the 12 well plate and the cells were washed once using Ham's F12 (plain). […] The cells were incubated with the test compounds for 30 min in humidified atmosphere and 37° C. After the incubation, the medium was removed and cells were washed once with plain Ham's F12. Subsequently, the cells were lysed by adding 500 ul of ice cold 0.1 N HCl to each well and shaking for 30 minutes at 200 rpm. […] The total cAMP was estimated from the sample according to the manufacturer's protocol using Cyclic AMP immunoassay kit (R&D systems, Minneapolis. MN). The remaining supernatant is used to determine the protein concentration using micro BCA (Sigma). Data is calculated as percent of control (Vehicle: water) and expressed as Mean±SD.

T1 sequence (P43220 24-463): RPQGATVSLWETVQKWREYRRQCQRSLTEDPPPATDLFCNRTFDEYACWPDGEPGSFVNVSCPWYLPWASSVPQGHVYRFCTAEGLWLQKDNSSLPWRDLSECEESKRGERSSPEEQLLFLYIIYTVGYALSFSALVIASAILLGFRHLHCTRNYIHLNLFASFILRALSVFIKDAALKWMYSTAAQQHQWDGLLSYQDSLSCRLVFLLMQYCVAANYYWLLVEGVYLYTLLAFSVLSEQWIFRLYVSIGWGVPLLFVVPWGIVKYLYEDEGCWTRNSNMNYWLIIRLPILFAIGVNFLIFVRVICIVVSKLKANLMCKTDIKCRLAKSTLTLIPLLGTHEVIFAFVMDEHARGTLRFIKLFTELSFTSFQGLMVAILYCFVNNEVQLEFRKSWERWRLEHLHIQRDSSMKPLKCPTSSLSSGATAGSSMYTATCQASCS

SMILES | blood glucose level (C57BL/6J mice; 10 nM/kg, i.p, 0 min) | blood glucose level (C57BL/6J mice; 10 nM/kg, i.p, 30 min) | blood glucose level (C57BL/6J mice; 10 nM/kg, i.p, 60 min) | blood glucose level (C57BL/6J mice; 10 nM/kg, i.p, 120 min) | blood glucose level (C57BL/6J mice; 2 μM/kg, oral, 0 min) | blood glucose level (C57BL/6J mice; 2 μM/kg, oral, 30 min) | blood glucose level (C57BL/6J mice; 2 μM/kg, oral, 60 min) | blood glucose level (C57BL/6J mice; 2 μM/kg, oral, 120 min) | further results
CCc1cc(OC)ccc1-c1ccc(CC(NC(=O)[C@H](CC(=O)O)NC(=O)[C@H](CO)NC(=O)[C@@H](NC(=O)C(C)(Cc2ccccc2F)NC(=O)[C@@H](NC(=O)CNC(=O)[C@H](CCC(N)=O)NC(=O)C(C)(C)NC(=O)[C@@H](N)Cc2c[nH]cn2)[C@@H](C)O)[C@@H](C)O)C(=O)NC(Cc2ccc(-c3ccccc3C)cc2)C(N)=O)cc1 (single isomer, unassigned) [Seq. ID. No. 29, H-Aib-QGT-(α-Me-2F-Phe)-TSD-Bip(OMe)-Bip(2Me)] | 180 ± 2.5 | 110 ± 2.6 | 111 ± 3.2 | 112 ± 2.3 | 184 ± 2.5 | 115 ± 3.6 | 113 ± 4.2 | 110 ± 2.4 | –
CCc1cc(OC)ccc1-c1ccc(CC(NC(=O)[C@H](CC(=O)O)NC(=O)[C@H](CO)NC(=O)[C@@H](NC(=O)C(C)(Cc2ccccc2F)NC(=O)[C@@H](NC(=O)CNC(=O)[C@H](CCC(N)=O)NC(=O)C(C)(C)NC(=O)[C@@H](N)Cc2c[nH]cn2)[C@@H](C)O)[C@@H](C)O)C(=O)NC(Cc2ccc(-c3ccccc3F)cc2)C(N)=O)cc1 (single isomer, unassigned) [Seq. ID. No. 31, H-Aib-QGT-(α-Me-2F-Phe)-TSD-Bip(OMe)-Bip(2F)] | 183 ± 2.2 | 113 ± 2.8 | 113 ± 2.9 | 114 ± 2.0 | 185 ± 2.3 | 115 ± 3.8 | 113 ± 4.9 | 109 ± 2.2 | –
CCc1cc(OC)ccc1-c1ccc(CC(NC(=O)[C@H](CC(=O)O)NC(=O)[C@H](CO)NC(=O)[C@@H](NC(=O)[C@H](Cc2ccccc2)NC(=O)[C@@H](NC(=O)CNC(=O)[C@H](CCC(N)=O)NC(=O)[C@H](C)NC(=O)[C@@H](N)Cc2c[nH]cn2)[C@@H](C)O)[C@@H](C)O)C(=O)NC(Cc2ccc(-c3ccccc3C(F)(F)F)cc2)C(N)=O)cc1 (single isomer, unassigned) [Seq. ID. No. 12] | – | – | – | – | – | – | – | – | blood glucose level (C57BL/6J mice; 50 nM/kg, i.p, 0 min): 184 ± 5.0; blood glucose level (C57BL/6J mice; 50 nM/kg, i.p, 30 min): 122 ± 3.8; blood glucose level (C57BL/6J mice; 50 nM/kg, i.p, 60 min): 128 ± 2.1; blood glucose level (C57BL/6J mice; 50 nM/kg, i.p, 120 min): 149 ± 2.3
CCc1cc(OC)ccc1-c1ccc(CC(NC(=O)[C@H](CC(=O)O)NC(=O)[C@H](CO)NC(=O)[C@@H](NC(=O)C(C)(Cc2ccccc2F)NC(=O)[C@@H](NC(=O)CNC(=O)[C@H](CCC(N)=O)NC(=O)C2(NC(=O)[C@@H](N)Cc3c[nH]cn3)CC2)[C@@H](C)O)[C@@H](C)O)C(=O)NC(Cc2ccc(-c3ccccc3C)cc2)C(N)=O)cc1 (single isomer, unassigned) [Seq. ID. No. 33, H-(ACP)-QGT-(α-Me-2F-Phe)-TSD-Bip(OMe)-Bip(2Me)] | 181 ± 2.5 | 111 ± 3.4 | 113 ± 3.1 | 110 ± 1.8 | 182 ± 2.5 | 116 ± 3.1 | 113 ± 4.1 | 110 ± 2.8 | –
CCc1cc(OC)ccc1-c1ccc(CC(NC(=O)[C@H](CC(=O)O)NC(=O)[C@H](CO)NC(=O)[C@@H](NC(=O)[C@H](Cc2ccccc2)NC(=O)[C@@H](NC(=O)CNC(=O)[C@H](CCC(N)=O)NC(=O)[C@H](CO)NC(=O)[C@@H](N)Cc2c[nH]cn2)[C@@H](C)O)[C@@H](C)O)C(=O)NC(Cc2ccc(-c3ccccc3C)cc2)C(N)=O)cc1 (single isomer, unassigned) [Seq. ID. No. 5] | – | – | – | – | – | – | – | – | GLP-1 receptor agonistic activity (in words) (Human GLP-1 receptor): GLP-1 receptor agonistic activity
CCc1cc(OC)ccc1-c1ccc(CC(NC(=O)[C@H](CC(=O)O)NC(=O)[C@H](CO)NC(=O)[C@@H](NC(=O)C(C)(Cc2ccccc2F)NC(=O)[C@@H](NC(=O)CNC(=O)[C@H](CCC(N)=O)NC(=O)[C@H](CO)NC(=O)[C@@H](N)Cc2c[nH]cn2)[C@@H](C)O)[C@@H](C)O)C(=O)NC(Cc2ccc(-c3ccccc3F)cc2)C(N)=O)cc1 (single isomer, unassigned) [Seq. ID. No. 23, HSQGT-(α-Me-2F-Phe)-TSD-Bip(OMe)-Bip(2F)] | – | – | – | – | – | – | – | – | blood glucose level (C57BL/6J mice; 20 nM/kg, i.p, 0 min): 180 ± 3.1; blood glucose level (C57BL/6J mice; 20 nM/kg, i.p, 30 min): 122 ± 3.9; blood glucose level (C57BL/6J mice; 20 nM/kg, i.p, 60 min): 129 ± 2.2; blood glucose level (C57BL/6J mice; 20 nM/kg, i.p, 120 min): 140 ± 2.9
CCc1cc(OC)ccc1-c1ccc(CC(NC(=O)[C@H](CC(=O)O)NC(=O)[C@H](CO)NC(=O)[C@@H](NC(=O)[C@H](Cc2ccccc2)NC(=O)[C@@H](NC(=O)CNC(=O)[C@H](CCC(N)=O)NC(=O)C2(NC(=O)[C@@H](N)Cc3c[nH]cn3)CC2)[C@@H](C)O)[C@@H](C)O)C(=O)NC(Cc2ccc(-c3ccccc3F)cc2)C(N)=O)cc1 (single isomer, unassigned) [Seq. ID. No. 19, H-(ACP)-QGTFTSD-Bip(OMe)-Bip(2F)] | – | – | – | – | – | – | – | – | blood glucose level (C57BL/6J mice; 30 nM/kg, i.p, 0 min): 180 ± 3.2; blood glucose level (C57BL/6J mice; 30 nM/kg, i.p, 30 min): 119 ± 3.2; blood glucose level (C57BL/6J mice; 30 nM/kg, i.p, 60 min): 117 ± 3.1; blood glucose level (C57BL/6J mice; 30 nM/kg, i.p, 120 min): 118 ± 1.8
CCc1cc(OC)ccc1-c1ccc(CC(NC(=O)[C@H](CC(=O)O)NC(=O)[C@H](CO)NC(=O)[C@@H](NC(=O)[C@H](Cc2ccccc2)NC(=O)[C@@H](NC(=O)CNC(=O)[C@H](CCC(N)=O)NC(=O)C(C)(C)NC(=O)[C@@H](N)Cc2c[nH]cn2)[C@@H](C)O)[C@@H](C)O)C(=O)NC(Cc2ccc(-c3ccccc3C(F)(F)F)cc2)C(N)=O)cc1 (single isomer, unassigned) [Seq. ID. No. 16, H-Aib-QGTFTSD-Bip(OMe)-Bip(2CF3)] | – | – | – | – | – | – | – | – | blood glucose level (C57BL/6J mice; 30 nM/kg, i.p, 0 min): 183 ± 4.9; blood glucose level (C57BL/6J mice; 30 nM/kg, i.p, 30 min): 117 ± 2.5; blood glucose level (C57BL/6J mice; 30 nM/kg, i.p, 60 min): 116 ± 2.3; blood glucose level (C57BL/6J mice; 30 nM/kg, i.p, 120 min): 119 ± 2.0
CCc1cc(OC)ccc1-c1ccc(CC(NC(=O)[C@H](CC(=O)O)NC(=O)[C@H](CO)NC(=O)[C@@H](NC(=O)C(C)(Cc2ccccc2F)NC(=O)[C@@H](NC(=O)CNC(=O)[C@H](CCC(N)=O)NC(=O)[C@H](C)NC(=O)[C@@H](N)Cc2c[nH]cn2)[C@@H](C)O)[C@@H](C)O)C(=O)NC(Cc2ccc(-c3ccccc3C(F)(F)F)cc2)C(N)=O)cc1 (single isomer, unassigned) [Seq. ID. No. 28, HAQGT-(α-Me-2F-Phe)-TSD-Bip(OMe)-Bip(2CF3)] | – | – | – | – | – | – | – | – | blood glucose level (C57BL/6J mice; 20 nM/kg, i.p, 0 min): 182 ± 2.1; blood glucose level (C57BL/6J mice; 20 nM/kg, i.p, 30 min): 121 ± 2.9; blood glucose level (C57BL/6J mice; 20 nM/kg, i.p, 60 min): 130 ± 3.1; blood glucose level (C57BL/6J mice; 20 nM/kg, i.p, 120 min): 138 ± 2.4
CCc1cc(OC)ccc1-c1ccc(CC(NC(=O)[C@H](CC(=O)O)NC(=O)[C@H](CO)NC(=O)[C@@H](NC(=O)C(C)(Cc2ccccc2F)NC(=O)[C@@H](NC(=O)CNC(=O)[C@H](CCC(N)=O)NC(=O)C(C)(C)NC(=O)[C@@H](N)Cc2c[nH]cn2)[C@@H](C)O)[C@@H](C)O)C(=O)NC(Cc2ccc(-c3ccccc3C)nc2)C(N)=O)cc1 (single isomer, unassigned) [Seq. ID. No. 30, H-Aib-QGT-(α-Me-2F-Phe)-TSD-Bip(OMe)-Bip(Pyr)] | 182 ± 2.1 | 111 ± 2.1 | 112 ± 2.8 | 113 ± 2.2 | 183 ± 2.4 | 116 ± 3.1 | 112 ± 4.8 | 110 ± 2.5 | –
